According to US5308836A, “Pharmaceutical composition of stabilized [Leu^13 ]-motilin-Hse” (Sanwa Kagaku Kenkyusho Co., Ltd., priority 1991, dated 1994):
Read-outs that look alike come from different tables or passages of the source.

Tests used:
[1] = compared with native type motilin and [Leu^13 ]-motilin; cited from earlier work
[2] = assay type: physicochemical; details: for Amount of formed [Leu^13 ]-motilin-Hse-lactone: aqueous solution 20 μg/ml
Procedure: An aqueous solution containing 20 μg/ml of [Leu^13 ]-motilin-Hse was aseptically prepared by dissolving 1 mg of [Leu^13 ]-motilin-Hse in a refined water and adding 0.1N-sodium hydroxide and 0.1N-hydrochloric acid to adjust pH of the solution to 6.0 or 7.0.
Each of the solutions different in pH value was aseptically charged in a glass vial to seal the same. Each vial was stored in a constant temperature bath kept at 60° C. for 30 days and then a remaining amount of [Leu^13 ]-motilin-Hse was measured with HPLC method. […]
An aqueous solution containing 20 μg of [Leu^13 ]-motilin-Hse and 30 mg/ml of tartaric acid was aseptically prepared by dissolving 1 mg of [Leu^13 ]-motilin-Hse and tartaric acid in a refined water and adding 0.1N-sodium hydroxide and 0.1N-hydrochloric acid to adjust pH of the solution to 6.0 or 7.0.
(§1) Aqueous solutions, each containing 20 μg/ml of [Leu^13 ]-motilin were aseptically prepared by dissolving 1 mg of [Leu^13 ]-motilin in a refined water and adding 0.1N-sodium hydroxide and 0.1N-hydrochloric acid to adjust pH of each solution in various values.
(§2) Each of the solutions different in pH value was aseptically charged in a glass vial to seal the same. Each vial was stored in a constant temperature bath kept at 60° C. for 30 days and then a remaining amount of [Leu^13 ]-motilin was measured with HPLC method to check the relation with the pH value of the solution.
(§3) Aqueous solutions, each containing 20 μg/ml of [Leu^13 ]-motilin-Hsewere aseptically prepared by dissolving 1 mg of [Leu^13 ]-motilin-Hse in a refined water and adding 0.1 N-sodium hydroxide and 0.1 N-hydrochloric acid to adjust pH of each solution in various values.
as §2, with “]-motilin-Hse and amount of [Leu^13 ]-motilin-Hse-lactone formed by modification of Hse residue at 23-position of the former were” for “]-motilin was”
as §3, with “]-motilin-Hseand 30 mg/ml of tartaric acid were” for “]-motilin-Hsewere”, “]-motilin-Hse and tartaric acid” for “]-motilin-Hse”
as §3, with “]-motilin-Hseand 27.2 mg/ml of potassium dihydrogenphosphate were” for “]-motilin-Hsewere”, “]-motilin-Hse and potassium dihydrogenphosphate” for “]-motilin-Hse”, “N sodium” for “N-sodium”

[3] = assay type: physicochemical; details: lyophilized powder, no additive
Procedure: as §1
as §2, with “lyophilize” for “seal”
Aqueous solutions, each containing 20 μg/ml of [Leu^13 ]-motilin-Hsewere aseptically prepared by dissolving 1 mg of [Leu^13 ]-motilin-Hse in a refined water and adding 0.1N-sodium hydroxide and 0.1N-hydrochloric acid to adjust pH of each solution in various values.
as §2, with “lyophilize” for “seal”, “]-motilin-Hse and amount of [Leu^13 ]-motilin-Hse-lactone formed by modification of Hse residue at 23-position of the former were” for “]-motilin was”, “solution. […]” for “solution.”

pH range of relatively stable state ([2]; [Leu^13 ]-motilin-Hse aqueous solution, no additive, 60° C. 30 days): 4.0-6.0
Amount of formed [Leu^13 ]-motilin-Hse-lactone ([2]; 27.2 mg/ml potassium dihydrogenphosphate, pH 3.0, 60° C. 30 days): 31.1%
Amount of formed [Leu^13 ]-motilin-Hse-lactone ([2]; 27.2 mg/ml potassium dihydrogenphosphate, pH 4.0, 60° C. 30 days): 17.5%
Amount of formed [Leu^13 ]-motilin-Hse-lactone ([2]; 27.2 mg/ml potassium dihydrogenphosphate, pH 4.5, 60° C. 30 days): 9.3%
Amount of formed [Leu^13 ]-motilin-Hse-lactone ([2]; 27.2 mg/ml potassium dihydrogenphosphate, pH 5.0, 60° C. 30 days): 5.7%
Amount of formed [Leu^13 ]-motilin-Hse-lactone ([2]; 27.2 mg/ml potassium dihydrogenphosphate, pH 5.5, 60° C. 30 days): 2.1%
Amount of formed [Leu^13 ]-motilin-Hse-lactone ([2]; 27.2 mg/ml potassium dihydrogenphosphate, pH 6.0, 60° C. 30 days): 0%
Amount of formed [Leu^13 ]-motilin-Hse-lactone ([2]; 27.2 mg/ml potassium dihydrogenphosphate, pH 6.5, 60° C. 30 days): 0%
Amount of formed [Leu^13 ]-motilin-Hse-lactone ([2]; 27.2 mg/ml potassium dihydrogenphosphate, pH 7.0, 60° C. 30 days): 0%
Amount of formed [Leu^13 ]-motilin-Hse-lactone ([2]; 27.2 mg/ml potassium dihydrogenphosphate, pH 8.0, 60° C. 30 days): 0%
Amount of formed [Leu^13 ]-motilin-Hse-lactone ([2]; 27.2 mg/ml potassium dihydrogenphosphate, pH 9.0, 60° C. 30 days): 0%
Amount of formed [Leu^13 ]-motilin-Hse-lactone ([2]; 30 mg/ml tartaric acid, pH 3.0, 60° C. 30 days): 29.7%
Amount of formed [Leu^13 ]-motilin-Hse-lactone ([2]; 30 mg/ml tartaric acid, pH 4.0, 60° C. 30 days): 16.8%
Amount of formed [Leu^13 ]-motilin-Hse-lactone ([2]; 30 mg/ml tartaric acid, pH 4.5, 60° C. 30 days): 6.4%
Amount of formed [Leu^13 ]-motilin-Hse-lactone ([2]; 30 mg/ml tartaric acid, pH 5.0, 60° C. 30 days): 2.7%
Amount of formed [Leu^13 ]-motilin-Hse-lactone ([2]; 30 mg/ml tartaric acid, pH 5.5, 60° C. 30 days): 1.5%
Amount of formed [Leu^13 ]-motilin-Hse-lactone ([2]; 30 mg/ml tartaric acid, pH 6.0, 60° C. 30 days): 0%
Amount of formed [Leu^13 ]-motilin-Hse-lactone ([2]; 30 mg/ml tartaric acid, pH 6.5, 60° C. 30 days): 0%
Amount of formed [Leu^13 ]-motilin-Hse-lactone ([2]; 30 mg/ml tartaric acid, pH 7.0, 60° C. 30 days): 0%
Amount of formed [Leu^13 ]-motilin-Hse-lactone ([2]; 30 mg/ml tartaric acid, pH 8.0, 60° C. 30 days): 0%
Amount of formed [Leu^13 ]-motilin-Hse-lactone ([2]; 30 mg/ml tartaric acid, pH 9.0, 60° C. 30 days): 0%
Amount of formed [Leu^13 ]-motilin-Hse-lactone ([2]; no additive, pH 3.0, 60° C. 30 days): 30.2%
Amount of formed [Leu^13 ]-motilin-Hse-lactone ([2]; no additive, pH 4.0, 60° C. 30 days): 18.7%
Amount of formed [Leu^13 ]-motilin-Hse-lactone ([2]; no additive, pH 4.5, 60° C. 30 days): 8.7%
Amount of formed [Leu^13 ]-motilin-Hse-lactone ([2]; no additive, pH 5.0, 60° C. 30 days): 5.5%
Amount of formed [Leu^13 ]-motilin-Hse-lactone ([2]; no additive, pH 5.5, 60° C. 30 days): 1.9%
Amount of formed [Leu^13 ]-motilin-Hse-lactone ([2]; no additive, pH 6.0, 60° C. 30 days): 0%
Amount of formed [Leu^13 ]-motilin-Hse-lactone ([2]; no additive, pH 6.5, 60° C. 30 days): 0%
Amount of formed [Leu^13 ]-motilin-Hse-lactone ([2]; no additive, pH 7.0, 60° C. 30 days): 0%
Amount of formed [Leu^13 ]-motilin-Hse-lactone ([2]; no additive, pH 8.0, 60° C. 30 days): 0%
Amount of formed [Leu^13 ]-motilin-Hse-lactone ([2]; no additive, pH 9.0, 60° C. 30 days): 0%
Amount of formed [Leu^13 ]-motilin-Hse-lactone ([3]; solution pH 3.0, 60° C. 30 days): 25.1%
Amount of formed [Leu^13 ]-motilin-Hse-lactone ([3]; solution pH 4.0, 60° C. 30 days): 16.9%
Amount of formed [Leu^13 ]-motilin-Hse-lactone ([3]; solution pH 4.5, 60° C. 30 days): 7.3%
Amount of formed [Leu^13 ]-motilin-Hse-lactone ([3]; solution pH 5.0, 60° C. 30 days): 3.9%
Amount of formed [Leu^13 ]-motilin-Hse-lactone ([3]; solution pH 5.5, 60° C. 30 days): 1.8%
Amount of formed [Leu^13 ]-motilin-Hse-lactone ([3]; solution pH 6.0, 60° C. 30 days): 0%
Amount of formed [Leu^13 ]-motilin-Hse-lactone ([3]; solution pH 6.5, 60° C. 30 days): 0%
Amount of formed [Leu^13 ]-motilin-Hse-lactone ([3]; solution pH 7.0, 60° C. 30 days): 0%
Amount of formed [Leu^13 ]-motilin-Hse-lactone ([3]; solution pH 8.0, 60° C. 30 days): 0%
Amount of formed [Leu^13 ]-motilin-Hse-lactone ([3]; solution pH 9.0, 60° C. 30 days): 0%
Substance: [Leu^13 ]-motilin-Hse
biological activities [1]: higher biological activities
